The text below walks through data of ChEMBL document CHEMBL2407070, “Bioactive compounds from the roots of Strophioblachia fimbricalyx” (J Nat Prod, 2013).

The test system of test [1] is Plasmodium falciparum. As to the kind of experiment: Antiplasmodial activity against Plasmodium falciparum K1 after 42 hrs by microdilution method. The test is classed as functional, organism-based. As to conditions: K1, 42 h. On the technique in general: Dilution methods test growth across graded concentrations, often in twofold steps.
Test [2] concerns NCI-H187. As to the kind of experiment: Cytotoxicity against human NCI-H187 cells by SRB assay. The format is functional, cell-based. For orientation: The SRB assay estimates cell density from bound dye.
Test [3] deals with KB. As to the kind of experiment: Cytotoxicity against human KB cells by SRB assay. The format is functional, cell-based.
Test [4] deals with MCF7. As to the kind of experiment: cells. As to conditions: Homo sapiens.
Description: Cytotoxicity against human MCF7 cells by SRB assay
Test [5] deals with Vero. The experiment in a line: Cytotoxicity against african green monkey Vero cells by SRB assay. The test is classed as functional, cell-based. As to conditions: Chlorocebus sabaeus.
Test [6] deals with NCI-H187. The experiment in a line: Cytotoxicity against human NCI-H187 cells. The test is classed as functional, cell-based.

For orientation: IC50 means the concentration that gives 50% inhibition. `COc1cc2c3c(cc(O)c2cc1C)C(C)(C)C(=O)[C@]1(OC)Oc2c(cc4c(cc(OC)c5cc(C)c(OC)cc54)c2C)O[C@H]31`: the IC50 in test [1], in test [2], in test [3] and in test [4] was over 10 µM each time.
As for `COc1cc2c3c(cc(O)c2cc1C)C(C)(C)C(=O)[C@@]1(OC)Oc2c(cc4c(cc(OC)c5cc(C)c(OC)cc54)c2C)O[C@H]31`, the IC50 in test [1], in test [2], in test [3] and in test [4] was over 10 µM each time.
Take `COc1cc2c3c(cc(OC)c2cc1C)C(C)(O)OC3=O` (stereo not given): the IC50 in test [1], in test [2], in test [3] and in test [4] was over 10 µM throughout.
For the compound `COc1cc2c3c(cc(O)c2cc1C)C(C)(C)C(=O)OC3=O`, the half-inhibitory concentration (IC50) in test [1] was 3.9 µM; in test [2], 5.7 µM; in test [3], over 10 µM; in test [5], over 10 µM; in test [4], over 10 µM.
In the case of `COC1=Cc2c(cc(OC3=C4C(=CC(=O)C4(C)C)c4cc(OC)c(C)cc4C3=O)c3cc(C)c(OC)cc23)C(C)(C)C1=O`, the 50% inhibitory concentration (IC50) in test [1] is 2.9 µM; in test [6], 8.3 µM; in test [3], over 10 µM; in test [5] it was over 10 µM; in test [4], over 10 µM.
Turning to `COC1=C2C(=CC(=O)C(O)=C2C)c2cc(OC)c(C)cc2C1=O`, the IC50 was 0.0193 µM in test [1]; over 10 µM in test [2]; over 10 µM in test [3]; over 10 µM in test [5]; over 10 µM in test [4].
In test [1], `O[C@@H](c1cc(C(F)(F)F)nc2c(C(F)(F)F)cccc12)[C@H]1CCCCN1` (relative stereo) [(S,R)-MEFLOQUINE] showed an IC50 of 0.031 µM.
The same measure, in the same setting: the result for `C[C@H]1[C@@H](O)O[C@@H]2O[C@@]3(C)CC[C@H]4[C@H](C)CC[C@@H]1[C@@]24OO3` [ARTENIMOL] reads 0.0025 µM.
Consider `COc1cccc2c1C(=O)c1c(O)c3c(c(O)c1C2=O)C[C@@](O)(C(=O)CO)C[C@@H]3O[C@H]1C[C@H](N)[C@H](O)[C@H](C)O1` [DOXORUBICIN], for which the figures for the IC50 in test [2] and in test [3] were 0.14 µM and 0.56 µM, respectively.
For the compound `Cc1c2ccncc2c(C)c2c1[nH]c1ccccc12` [ELLIPTECINE], the values for the IC50 in test [2], in test [3] and in test [5] were 1.16 µM, 1.19 µM and 1.19 µM, respectively.
On to `CC/C(=C(\c1ccccc1)c1ccc(OCCN(C)C)cc1)c1ccccc1` [TAMOXIFEN], for which the IC50 in test [4] came to 5.19 µM.
